# Assay results published in article PMC6730478, “Discovery of N-(2-Aminophenyl)-4-(bis(2-chloroethyl)amino)Benzamide as a Potent Histone Deacetylase Inhibitor” (Frontiers in Pharmacology, 2019).
# What was measured:
# HDAC1 = biological target: T1, HDAC1 (Homo sapiens, UniProt Q13547); assay: In vitro HDAC inhibitory assay (fluorogenic substrate); type: biochemical
# T1 construct: purchased BPS Bioscience
# Experimental: (§1) All of the HDAC enzymes were bought from BPS Bioscience. In vitro HDAC inhibition assays were conducted as previously described. Briefly, 20 μl of recombinant HDAC enzyme solution (HDAC1−9) was mixed with various concentrations of tested compound (20 μl). The mixture was incubated at 30°C for 1 h (for the time-dependent assay, the mixture was incubated for 15, 30, 60, and 90 min, respectively), and then 10 μl of fluorogenic substrate (Boc-Lys (acetyl)-AMC (3 mM) for HDAC1, 2, 3, and 6, Boc-Lys (trifluoroacetyl)-AMC (3 mM) for HDAC 4, 7, 8, and 9) was added. After incubation at 30°C for 2 h, the catalytic reaction was stopped by addition of 10 μl of developer containing trypsin and trichostatin A (TSA). After 30 min, fluorescence intensity was measured using a microplate reader at excitation and emission wavelengths of 360 and 460 nm, respectively. The inhibition ratios were calculated from the fluorescence intensity readings of tested wells relative to those of control wells, and the IC50 curves and values were determined by GraphPad Prism 6.0 software.
# HDAC7 = biological target: T2, HDAC7 (Homo sapiens, UniProt Q8WUI4); assay: as above; type: biochemical; details: n ≥ 2, SD <10% of the mean; read-out: Enzyme inhibitory activity IC50, HDAC7
# T2 construct: purchased BPS Bioscience
# Experimental: as §1
# HDAC6 = biological target: T3, HDAC6 (Homo sapiens, UniProt Q9UBN7); assay: biochemical
# T3 construct: purchased BPS Bioscience
# Experimental: as §1
# HDAC2 = biological target: T4, HDAC2 (Homo sapiens, UniProt Q92769); assay: biochemical; details: n ≥ 2, SD <10% of the mean; read-out: Enzyme inhibitory activity IC50, HDAC2
# T4 construct: purchased BPS Bioscience
# Experimental: as §1
# HDAC3 = biological target: T5, HDAC3 (Homo sapiens, UniProt O15379); assay: biochemical; details: n ≥ 2, SD <10% of the mean; read-out: Enzyme inhibitory activity IC50, HDAC3
# T5 construct: purchased BPS Bioscience
# Experimental: as §1
# HDAC8 = biological target: T6, HDAC8 (Homo sapiens, UniProt Q9BY41); assay: biochemical
# T6 construct: purchased BPS Bioscience
# Experimental: as §1
# HDAC4 = biological target: T7, HDAC4 (Homo sapiens, UniProt P56524); assay: biochemical
# T7 construct: purchased BPS Bioscience
# Experimental: as §1
# HDAC9 = biological target: T8, HDAC9 (Homo sapiens, UniProt Q9UKV0); assay: biochemical
# T8 construct: purchased BPS Bioscience
# Experimental: as §1
# HepG2 cells [1] = assay: Annexin V-FITC/PI apoptosis detection (flow cytometry); type: cell-based; details: 24 h, control 3.52%
# Experimental: Cells were then washed with PBS, collected, resuspended with binding buffer from the annexin V-FITC kit (Thermo Fisher Co., USA) and then added with 5 µl of annexin V-FITC and mixed gently. After 10 min of incubation, 1 µl of PI was added to each sample and mixed gently. After incubation at room temperature for another 20 min in the dark, cells were subjected to flow cytometry (CytoFLEX, Beckman Coulter).
# HepG2 cells [2] = assay: MTT antiproliferative assay; type: cell-based
# Experimental: (§2) The stock solutions of tested compounds were diluted with culture medium. […] MTT working solution of 20 µl (5 mg/ml) was then added to each well and incubated for another 4 h. At the end of incubation, the medium were carefully removed, and 200 µl of DMSO was added. The optical density at 490 and 630 nm was then measured with a microplate reader (Model 680, Bio-Rad). […] The IC50 values were calculated with Origin 7.5 software, and standard deviations of the IC50 values were obtained from at least three independent experiments.
# A549 cells = assay: MTT antiproliferative assay; type: cell-based; details: Homo sapiens, A549, 48 h, read-out: Antiproliferative activity IC50, A549
# Experimental: as §2
# MKN45 cells = assay: MTT antiproliferative assay; type: cell-based; details: Homo sapiens, MKN-45, 48 h, read-out: Antiproliferative activity IC50, MKN45
# Experimental: as §2
# Colo205 cells = assay: MTT antiproliferative assay; type: cell-based; details: Homo sapiens, COLO 205, 48 h, read-out: Antiproliferative activity IC50, Colo205
# Experimental: as §2
# PNAC-1 cells = assay: MTT antiproliferative assay; type: cell-based; details: 48 h, read-out: Antiproliferative activity IC50, PNAC-1
# Experimental: as §2
# Calu-3 cells = assay: MTT antiproliferative assay; type: cell-based; details: Homo sapiens, Calu-3, 48 h, read-out: Antiproliferative activity IC50, Calu-3
# Experimental: as §2
# U937 cells = assay: MTT antiproliferative assay; type: cell-based; details: Homo sapiens, U-937, 48 h, read-out: Antiproliferative activity IC50, U937
# Experimental: as §2
# MDA-MB-231 cells = assay: MTT antiproliferative assay; type: cell-based; details: Homo sapiens, MDA-MB-231, 48 h, read-out: Antiproliferative activity IC50, MDA-MB-231
# Experimental: as §2
# MCF-7 cells = assay: MTT antiproliferative assay; type: cell-based; details: Homo sapiens, MCF7, 48 h, read-out: Antiproliferative activity IC50, MCF-7
# Experimental: as §2
# MDA-MB-468 cells = assay: MTT antiproliferative assay; type: cell-based; details: Homo sapiens, MDA-MB-468, 48 h, read-out: Antiproliferative activity IC50, MDA-MB-468
# Experimental: as §2
# LoVo cells = assay: MTT antiproliferative assay; type: cell-based; details: Homo sapiens, 48 h, read-out: Antiproliferative activity IC50, LoVo
# Experimental: as §2
# SKOV3 cells = assay: MTT antiproliferative assay; type: cell-based; details: Homo sapiens, SK-OV-3, 48 h, read-out: Antiproliferative activity IC50, SKOV3
# Experimental: as §2
# phosphorylated cdc2 = assay: Western blot in HepG2 cells; type: cell-based; details: 1 µM, 24 h, compared with SAHA
# Experimental: (§3) Protein sample concentrations were determined with Brandford assay. Thirty micrograms of each sample was subjected to sodium dodecyl sulfate–polyacrylamide gel electrophoresis (SDS-PAGE). After electrophoresis, proteins were transferred to polyvinylidene difluoride (PVDF) membrane (Millipore) and blocked with 5% fat-free dry milk in 1 × Tris-buffered saline (TBST) for 2 h at room temperature. Membranes were then probed with corresponding antibodies at 4°C overnight. Cleaved caspase-3 (#9661), caspase-3 (#9662), cleaved caspase-9 (#9505), caspase-9 (#9508), phospho-cdc2 (#4539), and cdc2 (#77055) antibodies were obtained from Cell Signaling Technology (Danvers, MA). Expression of human β-actin was detected with anti-β-actin antibody (Proteintech, Rosemont, IL) as a loading control. The membranes were then incubated with horseradish peroxidase (HRP)-conjugated secondary antibody (Santa Cruz, CA) and visualized with enhanced chemiluminescence (ECL)-detecting reagents (ComWin Biotech Co., Beijing, China).
# cleaved caspase-3 = assay: Western blot in HepG2 cells; type: cell-based; details: 1 µM, 24 h, compared with SAHA
# Experimental: as §3
# cleaved caspase-9 = assay: Western blot in HepG2 cells; type: cell-based; details: 1 µM, 24 h, compared with SAHA
# Experimental: as §3
# A2780 cells = assay: MTT antiproliferative assay; type: cell-based; details: for IC50: Homo sapiens, A2780, 48 h, read-out: Antiproliferative activity IC50, A2780
# Experimental: . The stock solutions of tested compounds were diluted with culture medium. The cells were seeded in 96-well plates at a density 5 × 10^3 cells per well and incubated until confluency of 90–95%, and then each well was treated with 100 µl of medium containing the desired concentrations of tested compounds and incubated for 48 h. MTT working solution of 20 µl (5 mg/ml) was then added to each well and incubated for another 4 h. At the end of incubation, the medium were carefully removed, and 200 µl of DMSO was added. The optical density at 490 and 630 nm was then measured with a microplate reader (Model 680, Bio-Rad). […] The IC50 values were calculated with Origin 7.5 software, and standard deviations of the IC50 values were obtained from at least three independent experiments.
# HepG2 cells [3] = assay: Cell cycle assay (PI staining, flow cytometry); type: cell-based; details: 6 h; for HepG2 cells at the G2/M phase: control 21.24%; for HepG2 cell population at the G0/G1 phase: control 55.60%
# Experimental: Cells were then washed twice with cold phosphate-buffered saline (PBS) and fixed in 70% precooled ethanol at 4°C for 12 h. After the fixation, cells were washed again with PBS and stained with PI/RNase A for 30 min at room temperature and eventually subjected to flow cytometry (CytoFLEX, Beckman Coulter) for cell cycle distribution determination.
# [4] = more potent than SAHA, ratio of IC50 values
# T1 sequence (Q13547 whole entry): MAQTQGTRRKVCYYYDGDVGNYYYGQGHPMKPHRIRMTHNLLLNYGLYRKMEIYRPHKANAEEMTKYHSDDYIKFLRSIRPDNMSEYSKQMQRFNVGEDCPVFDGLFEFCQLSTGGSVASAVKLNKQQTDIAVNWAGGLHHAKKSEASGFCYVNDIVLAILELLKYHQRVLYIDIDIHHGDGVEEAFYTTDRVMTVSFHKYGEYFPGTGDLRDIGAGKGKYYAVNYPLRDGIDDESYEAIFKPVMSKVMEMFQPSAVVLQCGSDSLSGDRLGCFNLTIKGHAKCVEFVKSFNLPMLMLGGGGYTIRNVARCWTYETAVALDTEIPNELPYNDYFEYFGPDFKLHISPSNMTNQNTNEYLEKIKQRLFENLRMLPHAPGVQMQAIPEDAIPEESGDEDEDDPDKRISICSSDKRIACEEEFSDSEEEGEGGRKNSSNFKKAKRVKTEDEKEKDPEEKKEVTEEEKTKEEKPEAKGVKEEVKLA
# T3 sequence (Q9UBN7 whole entry): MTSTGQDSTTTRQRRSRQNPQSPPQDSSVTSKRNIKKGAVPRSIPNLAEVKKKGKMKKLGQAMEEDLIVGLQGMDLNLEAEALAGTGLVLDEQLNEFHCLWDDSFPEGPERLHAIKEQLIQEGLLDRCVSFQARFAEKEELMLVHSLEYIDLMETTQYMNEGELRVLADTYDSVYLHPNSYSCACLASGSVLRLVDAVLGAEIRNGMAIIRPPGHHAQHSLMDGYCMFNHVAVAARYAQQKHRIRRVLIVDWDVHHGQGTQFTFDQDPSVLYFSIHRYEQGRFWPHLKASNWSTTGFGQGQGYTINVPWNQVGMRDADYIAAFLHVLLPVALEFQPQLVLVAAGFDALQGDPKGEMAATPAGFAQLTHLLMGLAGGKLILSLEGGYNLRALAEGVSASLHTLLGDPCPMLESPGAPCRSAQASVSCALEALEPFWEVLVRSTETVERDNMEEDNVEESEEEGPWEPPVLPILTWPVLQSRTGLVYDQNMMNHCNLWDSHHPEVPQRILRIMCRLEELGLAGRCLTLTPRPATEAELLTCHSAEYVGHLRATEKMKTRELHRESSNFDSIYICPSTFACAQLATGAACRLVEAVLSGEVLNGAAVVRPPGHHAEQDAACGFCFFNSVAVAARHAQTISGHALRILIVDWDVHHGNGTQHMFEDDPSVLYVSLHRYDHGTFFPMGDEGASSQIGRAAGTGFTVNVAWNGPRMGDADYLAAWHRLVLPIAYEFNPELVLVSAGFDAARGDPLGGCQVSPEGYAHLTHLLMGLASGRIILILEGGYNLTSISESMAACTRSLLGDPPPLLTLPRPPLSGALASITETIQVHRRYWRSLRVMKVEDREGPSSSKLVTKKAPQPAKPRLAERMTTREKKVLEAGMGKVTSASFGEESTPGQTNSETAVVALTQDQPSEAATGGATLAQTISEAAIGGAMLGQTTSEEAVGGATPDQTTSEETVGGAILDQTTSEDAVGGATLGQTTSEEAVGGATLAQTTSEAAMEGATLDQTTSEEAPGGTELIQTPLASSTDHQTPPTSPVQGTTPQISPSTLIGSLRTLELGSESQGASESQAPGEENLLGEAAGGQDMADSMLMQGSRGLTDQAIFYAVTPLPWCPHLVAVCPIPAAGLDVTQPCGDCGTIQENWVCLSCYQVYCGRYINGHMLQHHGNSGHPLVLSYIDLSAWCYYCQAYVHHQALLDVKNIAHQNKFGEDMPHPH
# T5 sequence (O15379 whole entry): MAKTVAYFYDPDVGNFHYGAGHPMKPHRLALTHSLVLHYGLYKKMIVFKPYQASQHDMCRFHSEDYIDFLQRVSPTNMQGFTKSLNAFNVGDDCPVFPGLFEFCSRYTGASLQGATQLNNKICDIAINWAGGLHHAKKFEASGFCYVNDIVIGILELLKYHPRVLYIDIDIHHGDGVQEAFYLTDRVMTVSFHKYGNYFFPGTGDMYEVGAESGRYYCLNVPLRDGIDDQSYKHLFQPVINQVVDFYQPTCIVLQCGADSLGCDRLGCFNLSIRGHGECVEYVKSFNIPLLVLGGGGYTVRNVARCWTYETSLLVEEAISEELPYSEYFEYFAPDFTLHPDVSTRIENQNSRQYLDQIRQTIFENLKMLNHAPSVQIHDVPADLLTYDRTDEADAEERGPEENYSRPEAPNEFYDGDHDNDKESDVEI
# T5 sequence (Q9Y618 395-489 partner limits assumed): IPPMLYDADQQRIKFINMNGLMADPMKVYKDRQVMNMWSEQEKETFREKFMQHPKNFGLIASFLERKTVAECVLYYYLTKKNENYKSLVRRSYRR
# T4 sequence (Q92769 whole entry): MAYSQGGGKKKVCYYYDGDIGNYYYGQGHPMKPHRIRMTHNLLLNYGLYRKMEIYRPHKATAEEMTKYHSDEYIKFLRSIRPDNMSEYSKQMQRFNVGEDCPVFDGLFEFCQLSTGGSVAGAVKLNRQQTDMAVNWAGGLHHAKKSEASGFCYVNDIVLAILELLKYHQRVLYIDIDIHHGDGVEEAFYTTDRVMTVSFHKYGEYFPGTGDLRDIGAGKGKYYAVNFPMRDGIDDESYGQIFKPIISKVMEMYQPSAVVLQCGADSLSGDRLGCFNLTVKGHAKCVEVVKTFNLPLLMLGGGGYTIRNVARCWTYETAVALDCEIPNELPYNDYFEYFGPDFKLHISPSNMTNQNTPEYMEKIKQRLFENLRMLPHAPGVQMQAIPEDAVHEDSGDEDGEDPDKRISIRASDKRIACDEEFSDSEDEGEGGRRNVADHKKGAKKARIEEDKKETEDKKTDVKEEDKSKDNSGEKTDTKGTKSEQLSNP
# T6 sequence (Q9BY41 whole entry): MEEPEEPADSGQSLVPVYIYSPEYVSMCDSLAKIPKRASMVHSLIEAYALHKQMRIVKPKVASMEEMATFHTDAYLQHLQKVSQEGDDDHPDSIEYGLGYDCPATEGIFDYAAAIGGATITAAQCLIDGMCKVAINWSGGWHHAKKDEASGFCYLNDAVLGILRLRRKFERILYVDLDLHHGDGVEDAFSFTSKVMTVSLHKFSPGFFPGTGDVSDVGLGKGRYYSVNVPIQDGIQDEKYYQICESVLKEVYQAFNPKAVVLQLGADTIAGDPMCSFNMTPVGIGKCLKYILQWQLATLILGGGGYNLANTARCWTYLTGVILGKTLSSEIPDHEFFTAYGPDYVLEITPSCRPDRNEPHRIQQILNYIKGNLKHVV
# T2 sequence (Q8WUI4 whole entry): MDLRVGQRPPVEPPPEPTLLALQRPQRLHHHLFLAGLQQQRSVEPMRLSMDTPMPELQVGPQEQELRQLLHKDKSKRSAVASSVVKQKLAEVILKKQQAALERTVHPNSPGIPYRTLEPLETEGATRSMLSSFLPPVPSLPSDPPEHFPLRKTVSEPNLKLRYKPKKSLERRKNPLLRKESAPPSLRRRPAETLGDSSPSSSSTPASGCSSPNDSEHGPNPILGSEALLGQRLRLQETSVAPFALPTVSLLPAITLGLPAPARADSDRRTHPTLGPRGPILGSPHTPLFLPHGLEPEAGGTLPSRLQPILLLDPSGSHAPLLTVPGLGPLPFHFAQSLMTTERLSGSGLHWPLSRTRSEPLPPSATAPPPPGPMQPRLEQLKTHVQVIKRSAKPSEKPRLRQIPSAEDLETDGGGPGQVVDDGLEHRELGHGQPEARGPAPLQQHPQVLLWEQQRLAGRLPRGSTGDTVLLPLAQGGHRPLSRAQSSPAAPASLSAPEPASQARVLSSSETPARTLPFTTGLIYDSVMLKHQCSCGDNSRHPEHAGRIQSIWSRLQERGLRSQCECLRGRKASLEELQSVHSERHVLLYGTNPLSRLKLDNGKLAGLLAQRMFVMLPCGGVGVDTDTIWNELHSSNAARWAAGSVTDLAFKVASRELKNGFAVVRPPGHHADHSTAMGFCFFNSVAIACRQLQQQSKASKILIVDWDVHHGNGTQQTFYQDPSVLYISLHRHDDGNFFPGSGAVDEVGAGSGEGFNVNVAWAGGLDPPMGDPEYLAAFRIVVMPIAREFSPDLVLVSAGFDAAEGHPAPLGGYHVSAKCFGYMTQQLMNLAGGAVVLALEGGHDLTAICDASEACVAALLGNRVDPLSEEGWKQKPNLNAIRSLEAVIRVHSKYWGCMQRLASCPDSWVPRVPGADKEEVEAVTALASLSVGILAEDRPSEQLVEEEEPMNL
# T8 sequence (Q9UKV0 whole entry): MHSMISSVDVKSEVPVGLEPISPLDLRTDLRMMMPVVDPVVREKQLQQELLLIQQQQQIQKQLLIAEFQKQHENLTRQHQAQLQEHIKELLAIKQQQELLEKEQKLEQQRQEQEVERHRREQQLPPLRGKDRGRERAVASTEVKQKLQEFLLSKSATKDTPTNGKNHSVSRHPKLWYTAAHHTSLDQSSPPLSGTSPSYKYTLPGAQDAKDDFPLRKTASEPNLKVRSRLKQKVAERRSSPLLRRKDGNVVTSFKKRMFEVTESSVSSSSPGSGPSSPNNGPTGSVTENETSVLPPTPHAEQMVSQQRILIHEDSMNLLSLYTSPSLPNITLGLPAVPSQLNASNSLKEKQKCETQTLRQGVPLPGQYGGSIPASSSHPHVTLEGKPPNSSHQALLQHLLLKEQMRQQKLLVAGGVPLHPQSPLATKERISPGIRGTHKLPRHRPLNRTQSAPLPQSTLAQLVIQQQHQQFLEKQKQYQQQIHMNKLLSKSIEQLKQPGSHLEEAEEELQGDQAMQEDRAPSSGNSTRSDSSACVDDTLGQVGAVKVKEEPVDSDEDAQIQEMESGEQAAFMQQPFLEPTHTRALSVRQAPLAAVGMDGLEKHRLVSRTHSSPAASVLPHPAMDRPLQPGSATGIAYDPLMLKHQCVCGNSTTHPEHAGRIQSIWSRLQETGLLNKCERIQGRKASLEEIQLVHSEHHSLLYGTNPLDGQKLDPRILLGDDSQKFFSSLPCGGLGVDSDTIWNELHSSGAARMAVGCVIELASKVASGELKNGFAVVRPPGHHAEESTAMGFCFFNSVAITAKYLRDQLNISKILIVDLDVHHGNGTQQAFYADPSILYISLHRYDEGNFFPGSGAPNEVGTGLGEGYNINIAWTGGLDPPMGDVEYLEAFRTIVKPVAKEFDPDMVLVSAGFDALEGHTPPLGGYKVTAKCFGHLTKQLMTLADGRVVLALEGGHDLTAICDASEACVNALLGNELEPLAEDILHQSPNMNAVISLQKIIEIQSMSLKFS
smiles,measurement,setting,value
"Nc1ccccc1NC(=O)c1ccc(N(CCCl)CCCl)cc1 [NA, N-(2-Aminophenyl)-4-(bis(2-chloroethyl)amino)benzamide]",IC50,"HDAC1; n ≥ 2, SD <10% of the mean, read-out: Enzyme inhibitory activity IC50, HDAC1",95.2 nM
same,HDAC1 selectivity versus HDAC2,"HDAC1; ratio of IC50 values, HDAC1 versus HDAC2",2.74 fold
same,HDAC1 selectivity versus HDAC3,"HDAC1; ratio of IC50 values, HDAC1 versus HDAC3",2.69 fold
same,IC50,HDAC7,> 5 µM
same,IC50,HDAC6,> 5 µM
same,IC50,HDAC2,261 nM
same,IC50,HDAC3,256 nM
same,IC50,HDAC8,> 5 µM
same,IC50,HDAC4,> 5 µM
same,IC50,HDAC9,> 5 µM
same,Percentage of apoptotic HepG2 cells,HepG2 cells [1]; 1 µM,9.15%
same,Percentage of apoptotic HepG2 cells,HepG2 cells [1]; 3 µM,18.07%
same,Percentage of apoptotic HepG2 cells,HepG2 cells [1]; 9 µM,37.39%
same,IC50,"HepG2 cells [2]; Homo sapiens, HepG2, 48 h, read-out: Antiproliferative activity IC50, HepG2",1730 nM
same,"Potency relative to SAHA, HepG2 cell growth inhibition",HepG2 cells [2]; [4],11.3 fold
same,IC50,A549 cells,14.7 µM
same,IC50,MKN45 cells,14.3 µM
same,IC50,Colo205 cells,33.8 µM
same,IC50,PNAC-1 cells,8.52 µM
same,IC50,Calu-3 cells,5.81 µM
same,IC50,U937 cells,1210 nM
same,IC50,MDA-MB-231 cells,7.64 µM
same,IC50,MCF-7 cells,18.7 µM
same,IC50,MDA-MB-468 cells,6.33 µM
same,IC50,LoVo cells,10.4 µM
same,IC50,SKOV3 cells,3.91 µM
same,Phosphorylation of cdc2,phosphorylated cdc2,up-regulated
same,Protein expression level of cleaved caspase-3,cleaved caspase-3,remarkedly increased
same,Protein expression level of cleaved caspase-9,cleaved caspase-9,remarkedly increased
same,IC50,A2780 cells,2.66 µM
same,"Potency relative to SAHA, A2780 cell growth inhibition",A2780 cells; [4],10.3 fold
same,HepG2 cells at the G2/M phase,HepG2 cells [3]; 1 µM,25.98%
same,HepG2 cell population at the G0/G1 phase,HepG2 cells [3]; 1 µM,48.64%
same,HepG2 cells at the G2/M phase,HepG2 cells [3]; 3 µM,35.05%
same,HepG2 cell population at the G0/G1 phase,HepG2 cells [3]; 3 µM,41.61%
same,HepG2 cells at the G2/M phase,HepG2 cells [3]; 9 µM,38.89%
same,HepG2 cell population at the G0/G1 phase,HepG2 cells [3]; 9 µM,37.19%
"O=C(CCCCCCC(=O)Nc1ccccc1)NO [SAHA, Suberoylanilide hydroxamic acid, reference compound]",Percentage of apoptotic HepG2 cells,HepG2 cells [1]; 1 µM,4.52%
same,Percentage of apoptotic HepG2 cells,HepG2 cells [1]; 3 µM,6.24%
same,Percentage of apoptotic HepG2 cells,HepG2 cells [1]; 9 µM,20.32%
same,IC50,A2780 cells,27.3 µM
same,Effect on the population of HepG2 cells at the G0/G1 phase (in words),"HepG2 cells [3]; 1, 3, and 9 µM",no significant effects
